Measured values taken from patent US20230338564A1, “NEODEGRADER CONJUGATES” (Orum Therapeutics, Inc., priority 2020, published 2023).

Assays:
Experiment in all cases: In vitro antiproliferation assay, General Procedure 2 (CCK-8)
AGS cell line = assay type: cell-based; conditions: Homo sapiens, Gastric
Description: (§1) Cell Culture: Cell lines were obtained from the American Type Culture Collection (ATCC, Manassas, VA, USA) or Deutsche Sammlung von Mikroorganismen und Zellkulturen (DSMZ, Braunschweig, Germany) and maintained according to the culturing conditions specified by ATCC or DSMZ. Cells were thawed out and maintained in culture for at least two passages before proceeding with experimental conditions.
(§2) Cytotoxicity assays: For adherent cell lines, the cells were dissociated with enzyme-free PBS-based cell dissociation buffer (Gibco, USA) and plated on tissue culture treated 96-well flat bottom polystyrene plates (Costar, Corning, USA) at appropriate cell densities depending on doubling time of the cells. 18 hours after plating, cells were treated with test articles at appropriate concentrations starting at 100 nM and diluted in 4-fold serial dilutions. For suspension cell lines, the cells were seeded on the same day of treatment and cells were treated as described above. Adherent cells were treated for 5 days and suspension cells were treated for 3 days. Cell proliferation was assessed using the Cell Counting Kit-8 (CCK-8, Dojindo Laboratories, Japan) and measurements were obtained using the Promega GloMax Discover plate reader (Promega, USA). Data were analyzed using GraphPad Prism software (GraphPad Software, San Diego, CA). All data points were obtained from technical triplicates and the experiments were validated using three biological replicates.

[1] = test system: ASKA synovial sarcoma cell line; assay type: cell-based
Description: as §1, §2

BT-474 cell line = assay type: cell-based; conditions: Homo sapiens, Breast, read-out: IC50, BT474
Description: as §1, §2

CMK cell line = assay type: cell-based; conditions: Homo sapiens, Acute megakaryocytic leukemia
Description: as §1, §2

Daudi cell line = assay type: cell-based; conditions: Homo sapiens, NHL
Description: as §1, §2

HL-60 cell line = assay type: cell-based; conditions: Homo sapiens, HL-60; AML; read-out: IC50, HL-60
Description: as §1, §2

[2] = test system: HS-SY-II synovial sarcoma cell line; assay type: cell-based
Description: as §1, §2

JHUEM3 cell line = assay type: cell-based; conditions: Endometrial
Description: as §1, §2

KE39 cell line = assay type: cell-based; conditions: Gastric
Description: as §1, §2

LOVO cell line = assay type: cell-based; conditions: Homo sapiens, Colon
Description: as §1, §2

ML-2 cell line = assay type: cell-based; conditions: Homo sapiens, ML-2; Acute myelomonocytic leukemia; read-out: IC50, ML-2
Description: as §1, §2

MOLM13 cell line = assay type: cell-based; conditions: Homo sapiens, MOLM-13; AML; read-out: IC50, MOLM13
Description: as §1, §2

MV4-11 cell line = assay type: cell-based; conditions: Homo sapiens, MV4-11; Biphenotypic B myelomonocytic leukemia; read-out: IC50, MV4-11
Description: as §1, §2

Molp8 cell line = assay type: cell-based; conditions: Homo sapiens, MOLP-8; MM
Description: as §1, §2

NB-4 cell line = assay type: cell-based; conditions: Homo sapiens, Acute promyelocytic leukemia
Description: as §1, §2

OCI-AML2 cell line = assay type: cell-based; conditions: Homo sapiens, OCI-AML2; Acute myeloid leukemia; read-out: IC50, OCI-AML2
Description: as §1, §2

OCI-AML4 cell line = assay type: cell-based; conditions: Acute myeloid leukemia; read-out: IC50, OCI-AML4
Description: as §1, §2

OCI-M1 cell line = assay type: cell-based; conditions: Acute myeloid leukemia
Description: as §1, §2

OCI-M2 cell line = assay type: cell-based; conditions: Acute myelocytic leukemia
Description: as §1, §2

PL-21 cell line = assay type: cell-based; conditions: Acute myeloid leukemia
Description: as §1, §2

RH30 cell line = assay type: cell-based; conditions: Rhabdomyosarcoma
Description: as §1, §2

RH41 cell line = assay type: cell-based; conditions: Homo sapiens, Rhabdomyosarcoma
Description: as §1, §2

RPMI7951 cell line = assay type: cell-based; conditions: Homo sapiens, RPMI-7951; Skin
Description: as §1, §2

SK-BR-3 cell line = assay type: cell-based; conditions: Homo sapiens, Breast, read-out: IC50, SKBR3
Description: as §1, §2

SKM-1 cell line = assay type: cell-based; conditions: Homo sapiens, SKM-1; Acute myeloid leukemia; read-out: IC50, SKM-1
Description: as §1, §2

SKOV3 cell line = assay type: cell-based; conditions: Homo sapiens, SK-OV-3; Ovarian
Description: as §1, §2

SNU182 cell line = assay type: cell-based; conditions: Homo sapiens, SNU-182; Liver
Description: as §1, §2

SU-DHL-8 cell line = assay type: cell-based; conditions: Homo sapiens, NHL
Description: as §1, §2

THLE2 cell line = assay type: cell-based; conditions: THLE-2; Human liver normal
Description: as §1, §2

THP-1 cell line = assay type: cell-based; conditions: Homo sapiens, AML
Description: as §1, §2

U251MG cell line = assay type: cell-based; conditions: Homo sapiens, U-251; Brain
Description: as §1, §2

EOL-1 cell line = assay type: cell-based, human; conditions: Homo sapiens, EOL1; Acute myeloid leukemia; read-out: IC50, EOL-1
Description: as §1, §2

CNCCOCCc1ccc(NC(=O)NCc2ccc3c(c2)CN(C2CCC(=O)NC2=O)C3=O)cc1Cl (centres unmarked) [Compound P1, 1-(3-chloro-4-[2-[2-(methylamino)ethoxy]ethyl]phenyl)-3-[[2-(2,6-dioxopiperidin-3-yl)-1-oxo-3H-isoindol-5-yl]methyl]urea]
IC50 (AGS cell line): > 1000 nM
IC50 [1]: 71.2 nM
IC50 (BT-474 cell line): 13 nM
IC50 (CMK cell line): 408 nM
IC50 (Daudi cell line): 47.4 nM
IC50 (HL-60 cell line): 12.3 nM
IC50 [2]: 11.7 nM
IC50 (JHUEM3 cell line): > 1000 nM
IC50 (KE39 cell line): > 1000 nM
IC50 (LOVO cell line): > 1000 nM
IC50 (ML-2 cell line): 1.86 nM
IC50 (MOLM13 cell line): 24.8 nM
IC50 (MV4-11 cell line): 2.72 nM
IC50 (Molp8 cell line): 23.7 nM
IC50 (NB-4 cell line): 8.63 nM
IC50 (OCI-AML2 cell line): 95.9 nM
IC50 (OCI-AML4 cell line): 22.4 nM
IC50 (OCI-M1 cell line): > 1000 nM
IC50 (OCI-M2 cell line): 650 nM
IC50 (PL-21 cell line): 7.55 nM
IC50 (RH30 cell line): 174 nM
IC50 (RH41 cell line): 1210 nM
IC50 (RPMI7951 cell line): 97.1 nM
IC50 (SK-BR-3 cell line): 100 nM
IC50 (SKM-1 cell line): 3.21 nM
IC50 (SKOV3 cell line): 114 nM
IC50 (SNU182 cell line): 12.7 nM
IC50 (SU-DHL-8 cell line): 102 nM
IC50 (THLE2 cell line): > 1000 nM
IC50 (THP-1 cell line): 350 nM
IC50 (U251MG cell line): > 1000 nM
IC50 (EOL-1 cell line): 3.1 nM
